Like-named read-outs stand apart in the source and are kept apart here.
Assays:
[1] = tested on: panel of 55 breast cancer cell lines; experiment: Cell growth inhibition assay (Cell Titer Glo, 72 h, 9 doses; GI50, TGI, LC50); assay type: cell-based, human; details: Homo sapiens, read-out: GI50 (converted)
[2] = tested on: luminal, basal, claudin-low and ERBB2AMP breast cancer cell lines; experiment: Associations of clinically relevant subtypes and response (non-parametric ANOVA or t-test on GI50 ranks); assay type: cell-based, human; details: Table 6; most sensitive subtype, FDR p<0.20
How it was run: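 Significance was set at FDR p<0.20 after combining p-values across three test sets. Subtype–response associations came from rank-based non-parametric ANOVA or t-tests on GI50. For three-class comparisons, post-hoc tests of each group against the rest identified the most sensitive group, with FDR correction.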

Structure (SMILES): C#Cc1cccc(Nc2ncnc3cc(OCCOC)c(OCCOC)cc23)c1 [Erlotinib]
- GI50 ([1]; AU565, AU565 cell line, censored GI50 values): 13.2 µM
- GI50 ([1]; AU565, cell line AU565): 13.2 µM
- GI50 ([1]; BT-20, BT20 cell line, censored GI50 values): 2 µM
- GI50 ([1]; BT-20, cell line BT20): 2 µM
- GI50 ([1]; BT-474, BT474 cell line, censored GI50 values): 10.5 µM
- GI50 ([1]; BT-474, cell line BT474): 10.5 µM
- GI50 ([1]; BT-483, cell line BT483): 66.1 µM
- GI50 ([1]; BT-549, BT549 cell line, censored GI50 values): 41.7 µM
- GI50 ([1]; BT-549, cell line BT549): 41.7 µM
- GI50 ([1]; CAMA-1, cell line CAMA1): 66.1 µM
- GI50 ([1]; HCC38, cell line HCC38): 66.1 µM
- GI50 ([1]; HCC70, HCC70 cell line, censored GI50 values): 1.74 µM
- GI50 ([1]; HCC70, cell line HCC70): 1.74 µM
- GI50 ([1]; HCC202, HCC202 cell line, censored GI50 values): 37.2 µM
- GI50 ([1]; HCC202, cell line HCC202): 37.2 µM
- GI50 ([1]; HCC1143, cell line HCC1143): 57.5 µM
- GI50 ([1]; HCC1187, HCC1187 cell line, censored GI50 values): 7.59 µM
- GI50 ([1]; HCC1187, cell line HCC1187): 7.59 µM
- GI50 ([1]; HCC1395, HCC1395 cell line, censored GI50 values): 39.8 µM
- GI50 ([1]; HCC1395, cell line HCC1395): 39.8 µM
- GI50 ([1]; HCC1419, HCC1419 cell line, censored GI50 values): 10.7 µM
- GI50 ([1]; HCC1419, cell line HCC1419): 10.7 µM
- GI50 ([1]; HCC1428, HCC1428 cell line, censored GI50 values): 17.8 µM
- GI50 ([1]; HCC1428, cell line HCC1428): 17.8 µM
- GI50 ([1]; HCC1500, HCC1500 cell line, censored GI50 values): 6.46 µM
- GI50 ([1]; HCC1500, cell line HCC1500): 6.46 µM
- GI50 ([1]; HCC1806, HCC1806 cell line, censored GI50 values): 4.27 µM
- GI50 ([1]; HCC1806, cell line HCC1806): 4.27 µM
- GI50 ([1]; HCC1937, HCC1937 cell line, censored GI50 values): 38.9 µM
- GI50 ([1]; HCC1937, cell line HCC1937): 38.9 µM
- GI50 ([1]; HCC1954, HCC1954 cell line, censored GI50 values): 3.09 µM
- GI50 ([1]; HCC1954, cell line HCC1954): 3.09 µM
- GI50 ([1]; HCC2185 cell line, censored GI50 values): 23.4 µM
- GI50 ([1]; HCC3153 cell line, censored GI50 values): 31.6 µM
- GI50 ([1]; LY2 cell line, censored GI50 values): 33.1 µM
- GI50 ([1]; MCF7, cell line MCF7): 66.1 µM
- GI50 ([1]; MDA-MB-157, cell line MDAMB157): 50.1 µM
- GI50 ([1]; MDA-MB-175-VII, MDAMB175VII cell line, censored GI50 values): 3.09 µM
- GI50 ([1]; MDA-MB-231, MDAMB231 cell line, censored GI50 values): 39.8 µM
- GI50 ([1]; MDA-MB-231, cell line MDAMB231): 39.8 µM
- GI50 ([1]; MDA-MB-361, cell line MDAMB361): 64.6 µM
- GI50 ([1]; MDA-MB-436, cell line MDAMB436): 55 µM
- GI50 ([1]; MDA-MB-453, cell line MDAMB453): 44.7 µM
- GI50 ([1]; MDA-MB-468, MDAMB468 cell line, censored GI50 values): 21.4 µM
- GI50 ([1]; MDA-MB-468, cell line MDAMB468): 21.4 µM
- GI50 ([1]; SK-BR-3, SKBR3 cell line, censored GI50 values): 15.8 µM
- GI50 ([1]; SK-BR-3, cell line SKBR3): 15.8 µM
- GI50 ([1]; SUM52PE, SUM52PE cell line, censored GI50 values): 31.6 µM
- GI50 ([1]; SUM52PE, cell line SUM52PE): 31.6 µM
- GI50 ([1]; SUM149PT, SUM149PT cell line, censored GI50 values): 2 µM
- GI50 ([1]; SUM149PT, cell line SUM149PT): 2 µM
- GI50 ([1]; SUM185PE, cell line SUM185PE): 66.1 µM
- GI50 ([1]; SUM225CWN, SUM225CWN cell line, censored GI50 values): 7.08 µM
- GI50 ([1]; SUM225CWN, cell line SUM225CWN): 7.08 µM
- GI50 ([1]; SUM1315MO2, SUM1315MO2 cell line, censored GI50 values): 7.41 µM
- GI50 ([1]; SUM-159-PT, SUM159PT cell line, censored GI50 values): 11.7 µM
- GI50 ([1]; SUM-159-PT, cell line SUM159PT): 11.7 µM
- GI50 ([1]; T47D, cell line T47D): 50.1 µM
- GI50 ([1]; UACC-812, UACC812 cell line, censored GI50 values): 12.3 µM
- GI50 ([1]; UACC-812, cell line UACC812): 12.3 µM
- GI50 ([1]; UACC-893, UACC893 cell line, censored GI50 values): 12.3 µM
- GI50 ([1]; UACC-893, cell line UACC893): 12.3 µM
- GI50 ([1]; ZR-75-1, cell line ZR751): 66.1 µM
- GI50 ([1]; ZR-75B, cell line ZR75B): 66.1 µM
- GI50 ([1]; cell line 600MPE): 52.5 µM
- GI50 ([1]; cell line HCC2185): 23.4 µM
- GI50 ([1]; cell line HCC3153): 31.6 µM
- GI50 ([1]; cell line LY2): 33.1 µM
- GI50 ([1]; cell line MDAMB134V): 66.1 µM
- GI50 ([1]; cell line MDAMB175V): 3.09 µM
- GI50 ([1]; cell line SUM1315MO): 7.41 µM
- Subtype specificity [2]: Basal

From patent US10770169B2, “Method of providing a treatment to a subject based on a dynamic pathway map” (THE REGENTS OF THE UNIVERSITY OF CALIFORNIA, priority 2010, dated 2020)
